Experimental data as given in patent US20090311217A1, “3-SUBSTITUTED-1H-INDOLE COMPOUNDS, THEIR USE AS MTOR KINASE AND PI3 KINASE INHIBITORS, AND THEIR SYNTHESES” (priority 2008, published 2009).

Assays:
PI3K-alpha = PI3K-alpha (Homo sapiens, UniProt P42336); assay: PI3K-alpha fluorescence polarization assay; type: biochemical; settings: read-out: PI3Kα Avg. IC50
PI3K-gamma = PI3K-gamma (Homo sapiens, UniProt P48736); assay: PI3K-gamma fluorescence polarization assay; type: biochemical; settings: PI3Kγ Avg. IC50
How it was run: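 Reactions in 5 mM HEPES pH 7, 2.5 mM MgCl2, 25 μM ATP with 2.5 μM diC8-PI(4,5)P2 and 5 ng enzyme, 1 h at 25° C, then EDTA quench. Product detected by FP using GST-GRP1 PH domain (100 nM) and BODIPY-TMR-IP4 tracer (5 nM); final DMSO 0.8%.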

PI3K-gamma, sequence (P48736 whole entry, species assumed, the tested form may be a part): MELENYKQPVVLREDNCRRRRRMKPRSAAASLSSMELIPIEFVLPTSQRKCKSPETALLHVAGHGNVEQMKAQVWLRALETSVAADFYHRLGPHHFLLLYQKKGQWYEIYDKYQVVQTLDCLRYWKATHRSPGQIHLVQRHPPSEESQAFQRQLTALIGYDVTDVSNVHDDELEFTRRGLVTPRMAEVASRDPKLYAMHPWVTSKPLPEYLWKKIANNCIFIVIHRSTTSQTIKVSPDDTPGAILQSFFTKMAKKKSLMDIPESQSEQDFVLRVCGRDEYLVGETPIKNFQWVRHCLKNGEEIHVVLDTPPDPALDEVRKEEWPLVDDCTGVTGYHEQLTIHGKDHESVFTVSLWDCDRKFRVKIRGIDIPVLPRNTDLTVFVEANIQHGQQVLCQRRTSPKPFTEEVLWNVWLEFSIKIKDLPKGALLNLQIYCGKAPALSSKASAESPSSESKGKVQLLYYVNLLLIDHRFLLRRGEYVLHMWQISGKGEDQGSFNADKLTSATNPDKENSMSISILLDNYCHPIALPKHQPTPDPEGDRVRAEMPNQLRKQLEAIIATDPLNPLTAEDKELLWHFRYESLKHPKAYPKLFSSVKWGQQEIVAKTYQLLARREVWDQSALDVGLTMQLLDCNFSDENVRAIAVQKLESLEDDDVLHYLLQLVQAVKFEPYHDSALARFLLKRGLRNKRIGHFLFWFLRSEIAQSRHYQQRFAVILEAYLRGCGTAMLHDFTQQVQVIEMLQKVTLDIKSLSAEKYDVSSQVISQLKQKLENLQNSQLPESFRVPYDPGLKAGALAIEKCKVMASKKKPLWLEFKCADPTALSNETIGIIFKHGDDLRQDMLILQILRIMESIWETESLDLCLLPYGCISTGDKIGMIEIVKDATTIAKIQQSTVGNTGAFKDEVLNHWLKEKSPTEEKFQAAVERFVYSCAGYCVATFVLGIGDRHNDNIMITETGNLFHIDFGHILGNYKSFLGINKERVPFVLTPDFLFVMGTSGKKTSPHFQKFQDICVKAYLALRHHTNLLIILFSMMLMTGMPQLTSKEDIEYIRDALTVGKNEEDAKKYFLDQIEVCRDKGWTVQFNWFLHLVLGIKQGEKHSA
PI3K-alpha, sequence (P42336 whole entry, species assumed): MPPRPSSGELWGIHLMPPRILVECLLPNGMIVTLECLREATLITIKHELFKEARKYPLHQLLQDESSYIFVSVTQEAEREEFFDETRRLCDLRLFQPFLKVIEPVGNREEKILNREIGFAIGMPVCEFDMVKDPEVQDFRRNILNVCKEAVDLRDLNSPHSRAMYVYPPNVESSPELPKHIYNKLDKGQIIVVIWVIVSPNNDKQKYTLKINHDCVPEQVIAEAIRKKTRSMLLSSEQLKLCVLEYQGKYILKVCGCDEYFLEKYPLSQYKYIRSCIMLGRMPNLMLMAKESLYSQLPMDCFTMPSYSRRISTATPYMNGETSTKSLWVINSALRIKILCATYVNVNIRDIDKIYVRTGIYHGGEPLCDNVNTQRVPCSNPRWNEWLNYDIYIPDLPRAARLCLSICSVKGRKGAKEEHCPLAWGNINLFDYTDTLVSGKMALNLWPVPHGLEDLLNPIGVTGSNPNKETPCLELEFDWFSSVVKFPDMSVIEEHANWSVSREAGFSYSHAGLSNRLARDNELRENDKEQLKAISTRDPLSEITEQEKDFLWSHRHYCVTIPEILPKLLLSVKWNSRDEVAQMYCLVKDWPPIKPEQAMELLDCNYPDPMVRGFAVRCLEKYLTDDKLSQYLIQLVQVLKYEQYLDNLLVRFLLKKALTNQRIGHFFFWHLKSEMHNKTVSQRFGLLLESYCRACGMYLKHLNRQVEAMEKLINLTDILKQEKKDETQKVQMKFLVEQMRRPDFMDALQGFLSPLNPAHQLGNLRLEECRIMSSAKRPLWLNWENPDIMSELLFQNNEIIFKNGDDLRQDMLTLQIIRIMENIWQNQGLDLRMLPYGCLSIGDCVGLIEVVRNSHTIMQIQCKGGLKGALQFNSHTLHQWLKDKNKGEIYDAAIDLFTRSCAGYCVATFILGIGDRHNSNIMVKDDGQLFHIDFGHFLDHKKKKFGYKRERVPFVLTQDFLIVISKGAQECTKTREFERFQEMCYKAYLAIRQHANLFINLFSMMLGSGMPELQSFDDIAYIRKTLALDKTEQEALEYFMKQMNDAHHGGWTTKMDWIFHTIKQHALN
PI3K-alpha, sequence (P27986 whole entry partner, species assumed): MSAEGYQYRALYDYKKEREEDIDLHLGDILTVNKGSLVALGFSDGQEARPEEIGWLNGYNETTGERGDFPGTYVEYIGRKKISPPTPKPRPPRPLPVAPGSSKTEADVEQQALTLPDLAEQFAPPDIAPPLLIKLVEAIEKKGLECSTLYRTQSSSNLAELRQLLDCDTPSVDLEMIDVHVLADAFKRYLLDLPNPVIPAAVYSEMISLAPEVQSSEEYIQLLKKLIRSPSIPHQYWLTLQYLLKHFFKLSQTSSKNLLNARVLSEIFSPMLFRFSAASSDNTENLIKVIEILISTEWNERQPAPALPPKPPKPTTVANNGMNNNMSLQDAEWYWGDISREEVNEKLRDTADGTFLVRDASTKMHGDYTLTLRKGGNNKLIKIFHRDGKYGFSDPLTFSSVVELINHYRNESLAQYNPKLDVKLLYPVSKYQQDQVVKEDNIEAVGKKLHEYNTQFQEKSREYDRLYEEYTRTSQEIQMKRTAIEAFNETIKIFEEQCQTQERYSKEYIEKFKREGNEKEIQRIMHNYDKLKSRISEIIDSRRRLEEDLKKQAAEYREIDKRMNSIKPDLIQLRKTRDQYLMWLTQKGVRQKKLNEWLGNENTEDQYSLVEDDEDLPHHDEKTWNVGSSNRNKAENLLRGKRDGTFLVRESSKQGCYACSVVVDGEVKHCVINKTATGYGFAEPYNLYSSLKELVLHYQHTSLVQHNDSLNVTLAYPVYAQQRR

Structure (SMILES) | IC50 (PI3K-alpha) [nM] | IC50 (PI3K-gamma) [nM]
CNC(=O)Nc1ccc2c(c1)C(=O)/C(=C/c1c[nH]c3c(/C=C/CN4CCOCC4)cc(OC)cc13)O2 [Compound 567, 1-[(2Z)-2-({5-methoxy-7-[(1E)-3-morpholin-4-ylprop-1-en-1-yl]-1H-indol-3-yl}methylene)-3-oxo-2,3-dihydro-1-benzofuran-5-yl]-3-methylurea] | 164 | 1550
CNC(=O)Nc1ccc2c(c1)C(=O)/C(=C/c1c[nH]c3c(CN4CCN(C)CC4)cc(OC)cc13)O2 [Compound 571, 1-[(2Z)-2-({5-methoxy-7-[(4-methylpiperazin-1-yl)methyl]-1H-indol-3-yl}methylene)-3-oxo-2,3-dihydro-1-benzofuran-5-yl]-3-methylurea] | 612 | 6440
COc1ccc2[nH]cc(/C=C3\Oc4cc(O)cc(C(N)=O)c4C3=O)c2c1 [Compound 518, (2Z)-6-hydroxy-2-[(5-methoxy-1H-indol-3-yl)methylene]-3-oxo-2,3-dihydro-1-benzofuran-4-carboxamide] | 451 | 1150
CNC(=O)Nc1ccc2c(c1)C(=O)/C(=C/c1cn(C)c3cccc(-c4ccccc4)c13)O2 [Compound 528, 1-methyl-3-{(2Z)-2-[(1-methyl-4-phenyl-1H-indol-3-yl)methylene]-3-oxo-2,3-dihydro-1-benzofuran-5-yl}urea] | > 10000 | > 10000
COc1ccc2[nH]c(-c3ccccc3)c(C=C3Oc4c(ccc(O)c4O)C3=O)c2c1 [Example 71, 6,7-dihydroxy-2-[(5-methoxy-2-phenyl-1H-indol-3-yl)methylene]-1-benzofuran-3(2H)-one] | 74.2 | 439
N#CCCCn1cc(C=C2Oc3cc(O)cc(O)c3C2=O)c2cc(F)ccc21 [Example 231, 4-{3-[(4,6-dihydroxy-3-oxo-1-benzofuran-2(3H)-ylidene)methyl]-5-fluoro-1H-indol-1-yl}butanenitrile] | 3500 | > 10000
C#CCNC(=O)Nc1ccc2c(c1)C(=O)/C(=C/c1cn(CCN3CCN(C)CC3)c3ccc(OC)cc13)O2 [Compound 548, 1-[(2Z)-2-({5-methoxy-1-[2-(4-methylpiperazin-1-yl)ethyl]-1H-indol-3-yl}methylene)-3-oxo-2,3-dihydro-1-benzofuran-5-yl]-3-prop-2-yn-1-ylurea] | 64.5 | 2790
CCNC(=O)Nc1ccc2c(c1)C(=O)/C(=C/c1cn(CCCN(C)C)c3ccc(OC)cc13)O2 [Compound 547, 1-[(2Z)-2-({1-[3-(dimethylamino)propyl]-5-methoxy-1H-indol-3-yl}methylene)-3-oxo-2,3-dihydro-1-benzofuran-5-yl]-3-ethylurea] | 63 | 2120
CCNC(=O)Nc1ccc2c(c1)C(=O)/C(=C/c1cn(C)c3cccc(-c4ccccc4)c13)O2 [Compound 543, 1-ethyl-3-{(2Z)-2-[(1-methyl-4-phenyl-1H-indol-3-yl)methylidene]-3-oxo-2,3-dihydro-1-benzofuran-5-yl}urea] | > 10000 | > 10000
O=C1/C(=C/c2cn(CCO)c3cccc(-c4ccccc4)c23)Oc2cc(O)cc(O)c21 [Compound 478, (2Z)-4,6-dihydroxy-2-{[1-(2-hydroxyethyl)-4-phenyl-1H-indol-3-yl]methylene}-1-benzofuran-3(2H)-one] | 1200 | 1740
COc1cc(/C=C/CN2CCN(C)CC2)c2c(c1)c(/C=C1\Oc3cc(O)ccc3C1=O)cn2C [Compound 582, (2Z)-6-hydroxy-2-({5-methoxy-1-methyl-7-[(1E)-3-(4-methylpiperazin-1-yl)prop-1-en-1-yl]-1H-indol-3-yl}methylene)-1-benzofuran-3(2H)-one] | 183 | 3570
Cc1[nH]c2ccc(Br)cc2c1/C=C1\Oc2c(ccc(O)c2O)C1=O [Example 66, (2Z)-2-[(5-bromo-2-methyl-1H-indol-3-yl)methylene]-6,7-dihydroxy-1-benzofuran-3(2H)-one] | 232 | 2910
COc1cc(-c2cncnc2)c2c(c1)c(/C=C1\Oc3cc(O)cc(O)c3C1=O)cn2CCCC#N [Compound 503, 4-{3-[(Z)-(4,6-dihydroxy-3-oxo-1-benzofuran-2(3H)-ylidene)methyl]-5-methoxy-7-pyrimidin-5-yl-1H-indol-1-yl}butanenitrile] | 106 | 811
COc1cccc2c1O/C(=C\c1c[nH]c3ccc(Br)cc13)C2=O [Compound 481, (2Z)-2-[(5-bromo-1H-indol-3-yl)methylene]-7-methoxy-1-benzofuran-3(2H)-one] | > 10000 | > 10000
Cn1c(-c2ccccc2)c(/C=C2\Oc3cc(O)cc(O)c3C2=O)c2c(N)cccc21 [Compound 521, (2Z)-2-[(4-amino-1-methyl-2-phenyl-1H-indol-3-yl)methylene]-4,6-dihydroxy-1-benzofuran-3(2H)-one] | 2470 | 8510
O=C1/C(=C/c2c(-c3ccc(F)cc3)[nH]c3ccccc23)Sc2ccccc21 [Example 277, (2Z)-2-{[2-(4-fluorophenyl)-1H-indol-3-yl]methylene}-1-benzothiophen-3(2H)-one] | 268 | 264
COc1ccc2[nH]cc(C=C3Oc4cc(O)cc(-c5ccccc5)c4C3=O)c2c1 [Compound 504, 6-hydroxy-2-[(5-methoxy-1H-indol-3-yl)methylene]-4-phenyl-1-benzofuran-3(2H)-one] | 122 | 541
COc1ccc2[nH]cc(CC3Oc4cc(O)cc(O)c4C3=O)c2c1 (stereo not shown) [Example 117, 4,6-dihydroxy-2-[(5-methoxy-1H-indol-3-yl)methyl]-1-benzofuran-3(2H)-one] | 1840 | 8600
COc1cccc2c1c(/C=C1\Oc3cc(O)cc(O)c3C1=O)c(-c1ccccc1)n2C [Compound 497, (2Z)-4,6-dihydroxy-2-[(4-methoxy-1-methyl-2-phenyl-1H-indol-3-yl)methylene]-1-benzofuran-3(2H)-one] | 963 | 1210

The next compounds have a lower IC50 (PI3K-alpha) than those just listed; values first:

IC50 (PI3K-alpha) [nM] | IC50 (PI3K-gamma) [nM] | Structure (SMILES)
12.5 | 154 | CNC(=O)Nc1ccc2c(c1)C(=O)/C(=C/c1c(CN(C)CCN(C)C)[nH]c3ccc(OC)cc13)O2 [Compound 613, 1-[(2Z)-2-{[2-({[2-(dimethylamino)ethyl](methyl)amino}methyl)-5-methoxy-1Hindol-3-yl]methylidene}-3-oxo-2,3-dihydro-1-benzofuran-5-yl]-3-methylurea]
0.4 | 4.8 | CNC(=O)Nc1ccc2c(c1)C(=O)/C(=C/c1c(-c3c(C)nn(C)c3C)[nH]c3ccc(OC)cc13)O2 [Compound 616, 1-[(2Z)-2-{[5-methoxy-2-(1,3,5-trimethyl-1H-pyrazol-4-yl)-1H-indol-3-yl]methylidene}-3-oxo-2,3-dihydro-1-benzofuran-5-yl]-3-methylurea]
21 | 154 | COc1ccc2c(c1)c(/C=C1\Oc3cc(O)ccc3C1=O)cn2CCCC#N [Compound 511, 4-{3-[(Z)-(6-hydroxy-3-oxo-1-benzofuran-2(3H)-ylidene)methyl]-5-methoxy-1Hindol-1-yl}butanenitrile]
8 | 9500 | CNC(=O)Nc1ccc2c(c1)C(=O)/C(=C/c1c(-c3nc(C(C)C)no3)[nH]c3ccc(OC)cc13)O2 [Compound 591, 1-[(2Z)-2-{[2-(3-isopropyl-1,2,4-oxadiazol-5-yl)-5-methoxy-1H-indol-3-yl]methylene}-3-oxo-2,3-dihydro-1-benzofuran-5-yl]-3-methylurea]
19 | 315 | CNC(=O)Nc1ccc2c(c1)C(=O)/C(=C/c1c(C(=O)NCCN(C)C)[nH]c3ccc(OC)cc13)O2 [Compound 605, N-[2-(dimethylamino)ethyl]-5-methoxy-3-[(Z)-{5-[(methylcarbamoyl)amino]-3-oxo-1-benzofuran-2(3H)-ylidene}methyl]-1H-indole-2-carboxamide]
2.85 | 209 | CNC(=O)Nc1ccc2c(c1)C(=O)/C(=C/c1c(C3CCC3)n(CCN3CCN(C)CC3)c3ccc(OC)cc13)O2 [Compound 562, 1-[(2Z)-2-({2-cyclobutyl-5-methoxy-1-[2-(4-methylpiperazin-1-yl)ethyl]-1H-indol-3-yl}methylene)-3-oxo-2,3-dihydro-1-benzofuran-5-yl]-3-methylurea]
15 | 446 | CNC(=O)Nc1ccc2c(c1)C(=O)/C(=C/c1c(C)n(CCN3CCCCC3)c3ccc(OC)cc13)O2 [Compound 609, 1-[(2Z)-2-{[5-methoxy-2-methyl-1-(2-piperidin-1-ylethyl)-1H-indol-3-yl]methylidene}-3-oxo-2,3-dihydro-1-benzofuran-5-yl]-3-methylurea]
4.5 | 967 | CNC(=O)Nc1ccc2c(c1)C(=O)/C(=C/c1c(C)n(CCCN3CCC(O)C3)c3ccc(OC)cc13)O2 (stereo not shown) [Compound 589, 1-[(2Z)-2-({1-[3-(3-hydroxypyrrolidin-1-yl)propyl]-5-methoxy-2-methyl-1H-indol-3-yl}methylene)-3-oxo-2,3-dihydro-1-benzofuran-5-yl]-3-methylurea]
2.25 | 537 | CNC(=O)Nc1ccc2c(c1)C(=O)/C(=C/c1c(C3CC3)n(CCN3CCN(C)CC3)c3ccc(OC)cc13)O2 [Compound 559, 1-[(2Z)-2-({2-cyclopropyl-5-methoxy-1-[2-(4-methylpiperazin-1-yl)ethyl]-1Hindol-3-yl}methylene)-3-oxo-2,3-dihydro-1-benzofuran-5-yl]-3-methylurea]
1.7 | 279 | CNC(=O)Nc1ccc2c(c1)C(=O)/C(=C/c1c(-c3cccnc3)n(CCN3CCN(C)CC3)c3ccc(OC)cc13)O2 [Compound 596, 1-[(2Z)-2-({5-methoxy-1-[2-(4-methylpiperazin-1-yl)ethyl]-2-pyridin-3-yl-1Hindol-3-yl}methylene)-3-oxo-2,3-dihydro-1-benzofuran-5-yl]-3-methylurea]
